Data set [1] addresses T1, NaV1.7 (Homo sapiens, UniProt Q15858).
T1 construct: expressed in transfected cells; tetracycline-inducible, kept under hygromycin and blasticidin selection
The experiment in a line: Whole cell patch clamp, internal block of NaV1.7 current (compound in internal solution). It is filed as cell-based. Particulars: compound applied internally, 5 Hz stimulation, read-out: Nav1.7 Intracellular Inhibition; for inhibition at 10 µM: % inhibition at 10 μM test concentration; for inhibition at 3 µM: % inhibition at 3 μM test concentration. As to the method: (§1) NaV1.7 was expressed upon induction with tetracycline. Cells were cultured in DMEM containing 10% dialyzed Fetal Bovine Serum (VWR, Radnor, Pa.), 1% Glutamax (VWR, Radnor, Pa.), 1% Penicillin-Streptomycin (VWR, Radnor, Pa.), 100 mg/L Hygromycin (Thermo Fisher Scientific, Waltham, Mass.) and 5 mg/L Blasticidin (Alfa Aesar, Haverhill, Mass.). Cells were grown and maintained at 37° C. in a humidified environment containing 10% CO2 in air. Cells were detached from the culture flask for passage and harvested using 0.05% Trypsin-EDTA (Thermo Fisher Scientific, Waltham, Mass.). To induce NaV1.7, cells were induced with tetracycline (0.1-1 μg/mL, IBI Scientific, Peosta, Iowa) the day before recording and plated onto 24-well plates. Cells were washed with DPBS (VWR, Radnor, Pa.), trypsinized and then triturated five times in 10 mL of growth media to break apart cell aggregates. For one 24-well plate, 2 mL of cell suspension was mixed with 23 mL of fresh growth media and 0.1-1 μg/mL tetracycline added. 1 ml of mixed media with cells was then added to each well of a 24-well plate, with a 12 mm coverslip already placed in the bottom of the well. Cells were then incubated in 37° C. and 10% CO2 overnight.
The intracellular solution contained the following (in mM) CsCl 135, NaCl 10, EGTA 10, HEPES 10, MgCl2 2, adjusted to pH 7.2 with CsOH. The external solution was a normal Ringer solution containing (in mM) NaCl 155, HEPES 10, glucose 10, KCl 3.5, CaCl2) 1.5, MgCl2 1 adjusted to pH 7.4 with NaOH. CsCl was from Alfa Aesar, Haverhill, Mass. All other chemicals were from Sigma-Aldrich, St. Louis, Mo. In order to test the degree of internal block by test compounds the compounds were dissolved in internal solution at the indicated test concentration. […] In order to test the degree of external block by test compounds the compounds were dissolved in external solution at the indicated test concentration.
18-24 hours after cells were induced with tetracycline, coverslips were placed into a chamber filled with Normal Ringer solution at room temperature and the chamber was placed on a microscope. Pipettes were pulled from borosilicate glass on a P97 puller (Sutter Instrument, Novato, Calif.) and were polished with a MF-830 Microforge (Narishige International USA, Inc, Amityville, N.Y.) to have a resistance of 1.5-2.5 MΩ when filled with CsCl internal solution at room temperature. Healthy cells (those that are round and translucent with no visible blemishes) were chosen for seal formation. A seal was formed between the pipette and the cell, and a brief pulse of suction was used to “break in” and establish the whole-cell configuration. The membrane potential was held at −100 mV before the voltage protocol begins. Only cells with series resistance between 1.5-5 MΩ were retained for analysis. The voltage protocol was as follows: Cells were held at −100 mV for 12 ms followed by a hyperpolarizing step to −105 mV for 12 ms to monitor the leak. Cells were then stepped back to −100 mV for 40 ms. Cells were then depolarized to −20 mV for 10 ms and then returned to −100 mV for 26 ms (the FIGURE).
Once the recording was started, the voltage protocol was run at 30 second intervals for 5 minutes to get a stable baseline. This was followed by four 30-second periods of 5 Hz stimulation of the same voltage protocol separated by 1 minute of rest which was then followed by 0.33 Hz stimulation after the last train. Currents were recorded using PatchMaster software with Heka EPC10 (HEKA Electronics, Lambrecht, Germany). Only cells with inward current amplitudes at −20 mV between 400 pA and 4 nA were accepted. In addition, cells having leak currents greater than 10% of their current amplitudes were discarded.
(§2) The data was plotted using the Patchmaster software (HEKA Electronics, Lambrecht, Germany) and was analyzed by plotting the minimum current during the voltage step to −20 mV (peak inward current) as a function of time. […]

A short description of data set [2]: PAMPA membrane permeability assay. Particulars: pH 7.4 buffer, GIT lipid, 4 hours incubation, 50 uM. In kind it is in vitro ADME. The procedure: The PAMPA assay (pION, Inc., Woburn Mass.) was used to determine the ability of compounds of the invention to cross an artificial lipid membrane by passive diffusion. Test compounds were dissolved in DMSO (10 mM) and diluted 200-fold in buffer (pION Inc., pH 7.4) to provide 50 uM stock solutions. Buffer (150 μL) was added to a UV blank plate and stock solutions (150 μL) were transferred to a UV reference plate. The blank and reference spectrum were read using a spectrophotometer. Stock solutions (200 μL) were added to the donor plate of the PAMPA sandwich plate and an accept plate painted with GIT lipid (pION Inc, 5 μL) was placed on top. Buffer (200 μL) was added to the acceptor plate and the PAMPA sandwich plate was incubated for 4 hours. Aliquots (150 μL) from the acceptor plate were added to a UV plate and read as acceptor spectrum. Aliquots (150 μL) of the donor solutions were added to a UV analysis plate and read as donor spectrum. The permeability coefficient of test compounds was calculated using PAMPA Explorer™ software (version 3.5.0.4) based on the AUC of the reference plate, the donor plate, and the acceptor plate.
Background: In PAMPA a lipid-coated filter parts donor from acceptor wells.

The target of data set [3] is T1, NaV1.7. The experiment in a line: Whole cell patch clamp, external block of NaV1.7 current (compound in external solution). It is filed as cell-based. To be noted: % inhibition at 10 μM test concentration, compound applied externally for 5 minutes; read-out: Nav1.7 Extracellular Inhibition. The procedure:
as §1, with “For one 24-well plate, 2 mL of cell suspension was mixed with 23 mL of fresh growth media and 0.1-1 μg/mL tetracycline added. 1 ml of mixed media with cells was then added to each well of a 24-well plate, with a 12 mm coverslip already placed in the bottom of the well. Cells were then incubated in 37° C. and 10% CO2 overnight.” left out
Once the recording was started, the voltage protocol was run at 30 second intervals for 5 minutes to get a stable baseline. […] Currents were recorded using PatchMaster software with Heka EPC10 (HEKA Electronics, Lambrecht, Germany). […]
as §2
For orientation: In patch-clamp work, channel activity is measured electrically.

Structures are written as SMILES. Where a name gives a salt, the structure may show the parent alone. Bounds are passed on as bounds.

T1 sequence (Q15858 whole entry): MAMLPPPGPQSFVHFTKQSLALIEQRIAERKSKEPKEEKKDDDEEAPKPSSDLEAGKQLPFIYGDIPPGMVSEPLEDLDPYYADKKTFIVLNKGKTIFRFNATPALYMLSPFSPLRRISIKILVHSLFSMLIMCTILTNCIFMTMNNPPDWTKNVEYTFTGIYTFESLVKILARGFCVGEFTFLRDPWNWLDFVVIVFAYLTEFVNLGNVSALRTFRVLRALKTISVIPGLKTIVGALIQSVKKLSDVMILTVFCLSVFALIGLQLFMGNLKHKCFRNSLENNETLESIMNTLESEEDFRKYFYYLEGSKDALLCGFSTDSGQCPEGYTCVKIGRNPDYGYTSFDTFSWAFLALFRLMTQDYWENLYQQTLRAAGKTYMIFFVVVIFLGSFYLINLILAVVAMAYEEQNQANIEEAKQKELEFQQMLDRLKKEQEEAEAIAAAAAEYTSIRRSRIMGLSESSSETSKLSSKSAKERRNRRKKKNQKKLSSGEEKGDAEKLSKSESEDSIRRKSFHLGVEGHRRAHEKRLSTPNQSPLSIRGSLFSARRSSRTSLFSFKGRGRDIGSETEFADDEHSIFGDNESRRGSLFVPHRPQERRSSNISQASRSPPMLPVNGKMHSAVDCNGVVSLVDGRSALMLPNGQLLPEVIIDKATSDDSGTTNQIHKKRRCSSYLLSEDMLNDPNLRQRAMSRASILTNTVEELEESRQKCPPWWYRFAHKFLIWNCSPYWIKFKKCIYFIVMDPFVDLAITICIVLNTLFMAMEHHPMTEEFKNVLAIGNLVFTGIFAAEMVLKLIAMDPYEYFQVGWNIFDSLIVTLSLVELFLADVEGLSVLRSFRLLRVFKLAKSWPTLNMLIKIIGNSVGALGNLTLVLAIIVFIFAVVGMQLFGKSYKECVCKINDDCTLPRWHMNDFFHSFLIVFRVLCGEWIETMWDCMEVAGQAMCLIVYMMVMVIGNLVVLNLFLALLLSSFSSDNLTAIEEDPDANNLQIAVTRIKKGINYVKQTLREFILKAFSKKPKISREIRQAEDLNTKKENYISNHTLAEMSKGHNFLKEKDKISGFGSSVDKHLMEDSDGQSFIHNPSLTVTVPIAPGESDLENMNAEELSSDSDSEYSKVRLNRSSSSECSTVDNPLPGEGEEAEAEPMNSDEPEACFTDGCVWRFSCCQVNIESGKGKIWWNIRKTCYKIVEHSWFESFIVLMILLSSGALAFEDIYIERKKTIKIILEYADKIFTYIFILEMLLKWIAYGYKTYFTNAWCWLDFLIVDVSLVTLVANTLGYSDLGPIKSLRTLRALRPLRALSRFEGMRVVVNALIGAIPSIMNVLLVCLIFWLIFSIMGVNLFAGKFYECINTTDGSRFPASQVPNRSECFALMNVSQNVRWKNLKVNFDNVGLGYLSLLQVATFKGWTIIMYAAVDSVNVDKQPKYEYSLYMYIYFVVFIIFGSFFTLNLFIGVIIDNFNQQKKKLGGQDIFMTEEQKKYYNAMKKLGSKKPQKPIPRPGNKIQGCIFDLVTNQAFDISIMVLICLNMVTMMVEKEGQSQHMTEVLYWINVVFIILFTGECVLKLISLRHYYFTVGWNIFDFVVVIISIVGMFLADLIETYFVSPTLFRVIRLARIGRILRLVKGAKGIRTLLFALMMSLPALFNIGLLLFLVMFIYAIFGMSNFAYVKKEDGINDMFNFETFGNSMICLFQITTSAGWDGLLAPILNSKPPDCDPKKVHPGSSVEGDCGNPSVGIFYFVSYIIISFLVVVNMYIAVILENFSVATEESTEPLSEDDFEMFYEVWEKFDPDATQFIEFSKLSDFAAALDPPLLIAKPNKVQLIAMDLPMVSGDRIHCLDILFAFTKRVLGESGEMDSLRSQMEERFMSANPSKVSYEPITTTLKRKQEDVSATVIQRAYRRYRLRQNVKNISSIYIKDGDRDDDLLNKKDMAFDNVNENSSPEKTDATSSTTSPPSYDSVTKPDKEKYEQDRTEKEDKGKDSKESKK

A word on the inhibition: it is the share of the control response that was lost under treatment. Turning to `CC[P+](CC)(CC)CC(=O)Nc1c(C)csc1C(=O)OC.[Br-]` [Compound 1A, triethyl(2-((2-(methoxycarbonyl)-4-methylthiophen-3-yl)amino)-2-oxoethyl) Phosphonium Bromide], on NaV1.7 [1], the inhibition at 10 µM lay within 40 to 70%. The “PAMPA (10^−6 cm/s)” value in data set [2] is reported as “+ (“+” (<0.1 10^−6 cm/s))”. For the compound `COC(=O)c1scc(C)c1NC(=O)C[P+]1(Cc2ccccc2)CCCCC1.[Br-]` [Compound 8A, 1-benzyl-1-(2-((2-(methoxycarbonyl)-4-methylthiophen-3-yl)amino)-2-oxoethyl)phosphinan-1-ium Bromide], the inhibition at 3 µM on NaV1.7 [1] is 70 to 90%. The “PAMPA (10^−6 cm/s)” value in data set [2] was “++ (“++” (0.1-2.0 10^−6 cm/s))”.

As for `COC(=O)c1scc(C)c1NC(=O)C[P+]1(Cc2ccccc2)CCCCC1` [Compound 8], at NaV1.7 [3], the inhibition at 10 µM was less than 40%.

As to `CCC(C(=O)Nc1c(C)csc1C(=O)OC)[P+]1(Cc2ccccc2)CCCCC1` (stereo not drawn) [Compound 10A, 1-benzyl-1-(1-((2-(methoxycarbonyl)-4-methylthiophen-3-yl)amino)-1-oxobutan-2-yl)phosphinan-1-ium Formate], the inhibition at 3 µM on NaV1.7 [1] is greater than 90%. In data set [2], the “PAMPA (10^−6 cm/s)” value is “+++. (“+++” (2.0-10.010^−6 cm/s))”.

Consider `CCCC[P+](CCCC)(CCCC)CC(=O)Nc1c(C)csc1C(=O)OC.[Br-]` [Compound 17A, tributyl(2-((2-(methoxycarbonyl)-4-methylthiophen-3-yl)amino)-2-oxoethyl) Phosphonium Bromide], for which the inhibition at 10 µM on NaV1.7 [1] is 70 to 95%. In addition, the “PAMPA (10^−6 cm/s)” value in data set [2] was “+ (“+” (<0.1 10^−6 cm/s))”.

Regarding `COC(=O)c1scc(C)c1NC(=O)C[P+](c1ccccc1)(c1ccccc1)c1ccccc1` [Compound 19A], the inhibition at 10 µM at NaV1.7 [1] was in the range of 70 to 95%. For `CC[P+](CC)(CC)CC(=O)Nc1c(C)csc1C(=O)OC(C)(C)C.[Br-]` [Compound 21A], at NaV1.7 [1], the inhibition at 3 µM was in the range of 70 to 90%. In addition, in data set [2], the “PAMPA (10^−6 cm/s)” value is given as “+ (“+” (<0.1 10^−6 cm/s))”.
